In patent publication US20240182531A1, “KV1.3 Blockers” (priority 2021, published 2024):
Where two headings read alike, the source gives them in different places. Where a SMILES comes first, the peptide text is derived from it. Bridges are numbered along the chain shown (N, C = ends). [ ]: non-standard residue; d: D form. Nle = CCCC[C@H](N)C(=O)O

Assays:
Rat whole blood = Rat whole blood (Rattus norvegicus, UniProt P15384); format: cell-based
human Kv1.2 = molecular target: T1, human Kv1.2 (Homo sapiens, UniProt P16389); assay: cell-based
T1 construct: expressed in transfected cells; host or cells: CHO
T1 sequence (P16389 whole entry): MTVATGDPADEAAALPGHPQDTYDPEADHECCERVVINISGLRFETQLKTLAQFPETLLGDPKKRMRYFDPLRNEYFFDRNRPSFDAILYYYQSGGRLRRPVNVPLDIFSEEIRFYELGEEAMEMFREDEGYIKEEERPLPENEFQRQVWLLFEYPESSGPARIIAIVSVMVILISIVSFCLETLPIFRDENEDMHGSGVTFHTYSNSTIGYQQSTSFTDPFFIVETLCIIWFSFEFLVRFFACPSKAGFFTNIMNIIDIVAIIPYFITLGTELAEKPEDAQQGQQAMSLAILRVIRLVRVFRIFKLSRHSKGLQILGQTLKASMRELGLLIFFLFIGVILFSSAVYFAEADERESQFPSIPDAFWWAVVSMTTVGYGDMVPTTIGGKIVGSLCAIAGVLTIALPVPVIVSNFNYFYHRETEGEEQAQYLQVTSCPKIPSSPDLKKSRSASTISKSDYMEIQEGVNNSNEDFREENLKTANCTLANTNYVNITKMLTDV

human Kv1.1 = molecular target: T2, human Kv1.1 (Homo sapiens, UniProt Q09470); assay: cell-based
T2 construct: expressed in transfected cells; host or cells: CHO
T2 sequence (Q09470 whole entry): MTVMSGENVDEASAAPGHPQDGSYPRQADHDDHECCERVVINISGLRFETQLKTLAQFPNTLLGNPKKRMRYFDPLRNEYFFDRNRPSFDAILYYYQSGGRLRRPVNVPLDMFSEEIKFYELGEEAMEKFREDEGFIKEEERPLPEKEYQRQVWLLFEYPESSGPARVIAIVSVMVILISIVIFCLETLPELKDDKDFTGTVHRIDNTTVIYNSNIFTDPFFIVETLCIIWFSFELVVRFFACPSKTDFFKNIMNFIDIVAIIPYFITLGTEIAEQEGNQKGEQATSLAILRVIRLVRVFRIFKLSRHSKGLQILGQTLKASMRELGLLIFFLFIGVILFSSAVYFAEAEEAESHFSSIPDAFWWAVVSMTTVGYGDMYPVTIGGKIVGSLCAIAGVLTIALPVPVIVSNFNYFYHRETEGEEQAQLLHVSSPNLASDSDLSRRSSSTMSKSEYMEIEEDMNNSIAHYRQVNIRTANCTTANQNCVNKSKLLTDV

human Kv1.6 = molecular target: T3, human Kv1.6 (Homo sapiens, UniProt P17658); assay: cell-based
T3 construct: expressed in transfected cells; host or cells: CHO
T3 sequence (P17658 whole entry): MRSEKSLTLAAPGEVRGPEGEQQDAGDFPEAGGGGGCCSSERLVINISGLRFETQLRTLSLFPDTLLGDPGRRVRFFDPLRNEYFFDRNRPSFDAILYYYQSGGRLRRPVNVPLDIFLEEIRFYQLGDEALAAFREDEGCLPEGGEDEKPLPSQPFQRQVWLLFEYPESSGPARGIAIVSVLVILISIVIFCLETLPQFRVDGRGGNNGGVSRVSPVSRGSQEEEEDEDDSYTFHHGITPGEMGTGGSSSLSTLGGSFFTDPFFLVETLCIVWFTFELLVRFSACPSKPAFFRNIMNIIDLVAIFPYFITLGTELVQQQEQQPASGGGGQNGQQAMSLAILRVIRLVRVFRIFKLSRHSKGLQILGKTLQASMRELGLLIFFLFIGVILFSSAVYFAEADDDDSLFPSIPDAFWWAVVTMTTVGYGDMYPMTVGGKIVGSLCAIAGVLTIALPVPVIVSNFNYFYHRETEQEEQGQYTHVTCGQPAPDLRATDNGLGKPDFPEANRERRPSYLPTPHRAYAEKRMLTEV

[1] = IL-17A release, thapsigargin, 24 Hr, at least 2 replicates
[2] = ratio of patch clamp IC50 values

Sequence of Rat whole blood (P15384 whole entry): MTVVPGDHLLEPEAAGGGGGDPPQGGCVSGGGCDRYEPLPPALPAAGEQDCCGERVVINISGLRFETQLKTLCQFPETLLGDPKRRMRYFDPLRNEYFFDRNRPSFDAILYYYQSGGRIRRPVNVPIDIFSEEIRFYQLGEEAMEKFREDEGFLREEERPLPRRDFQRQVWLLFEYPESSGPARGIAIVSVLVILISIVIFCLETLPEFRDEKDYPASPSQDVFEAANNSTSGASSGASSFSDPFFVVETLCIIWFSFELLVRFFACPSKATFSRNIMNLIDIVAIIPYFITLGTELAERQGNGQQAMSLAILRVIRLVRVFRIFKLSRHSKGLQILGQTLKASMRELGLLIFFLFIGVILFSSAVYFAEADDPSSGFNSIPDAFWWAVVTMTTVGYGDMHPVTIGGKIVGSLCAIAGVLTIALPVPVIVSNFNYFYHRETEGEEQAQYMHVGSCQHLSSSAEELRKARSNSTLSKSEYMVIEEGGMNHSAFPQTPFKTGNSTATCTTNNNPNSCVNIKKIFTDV

CCCC[C@@H]1NC(=O)[C@@H]2CSSC[C@H](NC(=O)[C@H](CCCNC(=N)N)NC(=O)[C@H](CCCC)NC(=O)[C@H](CCC(=O)O)NC(=O)[C@@H](NC(=O)[C@@H]3CCCN3)[C@@H](C)CC)C(=O)N[C@@H](CO)C(=O)N[C@@H](C)C(=O)N[C@@H](CO)C(=O)N[C@@H](C(C)C)C(=O)N[C@@H](CCC(=O)O)C(=O)N[C@H]3CSSC[C@H](NC(=O)[C@H](CCCCN)NC(=O)[C@H](CCCCN)NC(=O)[C@H](CC(N)=O)NC1=O)C(=O)N[C@@H](CCCCN)C(=O)N[C@H](C(=O)N[C@@H](Cc1ccc(O)cc1)C(=O)N1CCC[C@H]1C(=O)N[C@@H](CCCNC(=N)N)C(=O)O)CSSC[C@H](NC(=O)[C@H](CCCCN)NC(=O)[C@H](CCC(N)=O)NC(=O)[C@H](CCCCN)NC3=O)C(=O)N[C@@H](CC(C)C)C(=O)N[C@@H](CCCCN)C(=O)N[C@@H](C)C(=O)N[C@@H]([C@@H](C)CC)C(=O)NCC(=O)N[C@@H](CO)C(=O)N[C@@H]([C@@H](C)CC)C(=O)N[C@@H](Cc1ccccc1)C(=O)NCC(=O)N[C@@H](CCCCN)C(=O)N2 [compound 92] (H-PIE[Nle]RCSASVECKQKCLKAIGSIFGKC[Nle]NKKCKCYPR-OH; disulfide 6-27, 12-32, 16-34)
IC50 (Rat whole blood): 1.8 nM | Selectivity ratio Kv1.2/Kv1.3 (human Kv1.2): 4561 | Selectivity ratio Kv1.1/Kv1.3 (human Kv1.1): >7800 | Selectivity ratio Kv1.6/Kv1.3 (human Kv1.6): >7800

CCCC[C@@H]1NC(=O)[C@@H]2CSSC[C@H](N)C(=O)N[C@@H](CO)C(=O)N[C@@H](C)C(=O)N[C@@H](CO)C(=O)N[C@@H](C(C)C)C(=O)N[C@@H](CCC(=O)O)C(=O)N[C@H]3CSSC[C@H](NC(=O)[C@H](CCCCN)NC(=O)[C@H](CCCCN)NC(=O)[C@H](CC(N)=O)NC1=O)C(=O)N[C@@H](CCCCN)C(=O)N[C@H](C(=O)N[C@@H](Cc1ccc(O)cc1)C(=O)N1CCC[C@H]1C(=O)N[C@@H](CCCNC(=N)N)C(N)=O)CSSC[C@H](NC(=O)[C@H](CCCCN)NC(=O)[C@H](CCC(N)=O)NC(=O)[C@H](CCCCN)NC3=O)C(=O)N[C@@H](CC(C)C)C(=O)N[C@@H](CCCCN)C(=O)N[C@@H](C)C(=O)N[C@@H]([C@@H](C)CC)C(=O)NCC(=O)N[C@@H](CO)C(=O)N[C@@H]([C@@H](C)CC)C(=O)N[C@@H](Cc1ccccc1)C(=O)NCC(=O)N[C@@H](CCCCN)C(=O)N2 [compound 98] (H-CSASVECKQKCLKAIGSIFGKC[Nle]NKKCKCYPR-NH2; disulfide 1-22, 7-27, 11-29)
IC50 (Rat whole blood; [1]): 1.6 nM | Selectivity ratio Kv1.2/Kv1.3 (human Kv1.2; [2]): >7000 | Selectivity ratio Kv1.1/Kv1.3 (human Kv1.1; [2]): >7000 | Selectivity ratio Kv1.6/Kv1.3 (human Kv1.6; [2]): >7000

CCCC[C@@H]1NC(=O)[C@@H]2CSSC[C@H](NC(C)=O)C(=O)N[C@@H](CO)C(=O)N[C@@H](C)C(=O)N[C@@H](CO)C(=O)N[C@@H](C(C)C)C(=O)N[C@@H](CCC(=O)O)C(=O)N[C@H]3CSSC[C@H](NC(=O)[C@H](CCCCN)NC(=O)[C@H](CCCCN)NC(=O)[C@H](CC(N)=O)NC1=O)C(=O)N[C@@H](CCCCN)C(=O)N[C@H](C(=O)N[C@@H](Cc1ccc(O)cc1)C(=O)N1CCC[C@H]1C(=O)N[C@@H](CCCNC(=N)N)C(N)=O)CSSC[C@H](NC(=O)[C@H](CCCCN)NC(=O)[C@H](CCC(N)=O)NC(=O)[C@H](CCCCN)NC3=O)C(=O)N[C@@H](CC(C)C)C(=O)N[C@@H](CCCCN)C(=O)N[C@@H](C)C(=O)N[C@@H]([C@@H](C)CC)C(=O)NCC(=O)N[C@@H](CO)C(=O)N[C@@H]([C@@H](C)CC)C(=O)N[C@@H](Cc1ccccc1)C(=O)NCC(=O)N[C@@H](CCCCN)C(=O)N2 [compound 99] (Ac-CSASVECKQKCLKAIGSIFGKC[Nle]NKKCKCYPR-NH2; disulfide 1-22, 7-27, 11-29)
IC50 (Rat whole blood; [1]): 0.88 nM | Selectivity ratio Kv1.2/Kv1.3 (human Kv1.2; [2]): 1591 | Selectivity ratio Kv1.1/Kv1.3 (human Kv1.1; [2]): >12400 | Selectivity ratio Kv1.6/Kv1.3 (human Kv1.6; [2]): >12400

CCCC[C@@H]1NC(=O)[C@@H]2CSSC[C@H](NC(=O)[C@@H](N)CCCNC(=N)N)C(=O)N[C@@H](CO)C(=O)N[C@@H](C)C(=O)N[C@@H](CO)C(=O)N[C@@H](C(C)C)C(=O)N[C@@H](CCC(=O)O)C(=O)N[C@H]3CSSC[C@H](NC(=O)[C@H](CCCCN)NC(=O)[C@H](CCCCN)NC(=O)[C@H](CC(N)=O)NC1=O)C(=O)N[C@@H](CCCCN)C(=O)N[C@H](C(=O)N[C@@H](Cc1ccc(O)cc1)C(=O)N1CCC[C@H]1C(=O)N[C@@H](CCCNC(=N)N)C(N)=O)CSSC[C@H](NC(=O)[C@H](CCCCN)NC(=O)[C@H](CCC(N)=O)NC(=O)[C@H](CCCCN)NC3=O)C(=O)N[C@@H](CC(C)C)C(=O)N[C@@H](CCCCN)C(=O)N[C@@H](C)C(=O)N[C@@H]([C@@H](C)CC)C(=O)NCC(=O)N[C@@H](CO)C(=O)N[C@@H]([C@@H](C)CC)C(=O)N[C@@H](Cc1ccccc1)C(=O)NCC(=O)N[C@@H](CCCCN)C(=O)N2 [compound 100] (H-RCSASVECKQKCLKAIGSIFGKC[Nle]NKKCKCYPR-NH2; disulfide 2-23, 8-28, 12-30)
IC50 (Rat whole blood; [1]): 0.52 nM | Selectivity ratio Kv1.2/Kv1.3 (human Kv1.2; [2]): 708 | Selectivity ratio Kv1.1/Kv1.3 (human Kv1.1; [2]): >7600 | Selectivity ratio Kv1.6/Kv1.3 (human Kv1.6; [2]): 3290

CCCC[C@@H]1NC(=O)[C@@H]2CSSC[C@H](NC(=O)[C@H](CCCCN)NC(=O)[C@H](CO)NC(C)=O)C(=O)N[C@@H](CO)C(=O)N[C@@H](C)C(=O)N[C@@H](CO)C(=O)N[C@@H](C(C)C)C(=O)N[C@@H](CCC(=O)O)C(=O)N[C@H]3CSSC[C@H](NC(=O)[C@H](CCCCN)NC(=O)[C@H](CCCCN)NC(=O)[C@H](CC(N)=O)NC1=O)C(=O)N[C@@H](CCCCN)C(=O)N[C@H](C(=O)N[C@@H](Cc1ccc(O)cc1)C(=O)N1CCC[C@H]1C(=O)N[C@@H](CCCNC(=N)N)C(N)=O)CSSC[C@H](NC(=O)[C@H](CCCCN)NC(=O)[C@H](CCC(N)=O)NC(=O)[C@H](CCCCN)NC3=O)C(=O)N[C@@H](CC(C)C)C(=O)N[C@@H](CCCCN)C(=O)N[C@@H](C)C(=O)N[C@@H]([C@@H](C)CC)C(=O)NCC(=O)N[C@@H](CO)C(=O)N[C@@H]([C@@H](C)CC)C(=O)N[C@@H](Cc1ccccc1)C(=O)NCC(=O)N[C@@H](CCCCN)C(=O)N2 [compound 101] (Ac-SKCSASVECKQKCLKAIGSIFGKC[Nle]NKKCKCYPR-NH2; disulfide 3-24, 9-29, 13-31)
IC50 (Rat whole blood; [1]): 0.36 nM | Selectivity ratio Kv1.2/Kv1.3 (human Kv1.2; [2]): 196 | Selectivity ratio Kv1.1/Kv1.3 (human Kv1.1; [2]): >3000 | Selectivity ratio Kv1.6/Kv1.3 (human Kv1.6; [2]): 1451

CCCC[C@@H]1NC(=O)[C@@H]2CSSC[C@H](NC(=O)[C@H](CCCNC(=N)N)NC(=O)[C@H](CC(C)C)NC(C)=O)C(=O)N[C@@H](CO)C(=O)N[C@@H](C)C(=O)N[C@@H](CO)C(=O)N[C@@H](C(C)C)C(=O)N[C@@H](CCC(=O)O)C(=O)N[C@H]3CSSC[C@H](NC(=O)[C@H](CCCCN)NC(=O)[C@H](CCCCN)NC(=O)[C@H](CC(N)=O)NC1=O)C(=O)N[C@@H](CCCCN)C(=O)N[C@H](C(=O)N[C@@H](Cc1ccc(O)cc1)C(=O)N1CCC[C@H]1C(=O)N[C@@H](CCCNC(=N)N)C(N)=O)CSSC[C@H](NC(=O)[C@H](CCCCN)NC(=O)[C@H](CCC(N)=O)NC(=O)[C@H](CCCCN)NC3=O)C(=O)N[C@@H](CC(C)C)C(=O)N[C@@H](CCCCN)C(=O)N[C@@H](C)C(=O)N[C@@H]([C@@H](C)CC)C(=O)NCC(=O)N[C@@H](CO)C(=O)N[C@@H]([C@@H](C)CC)C(=O)N[C@@H](Cc1ccccc1)C(=O)NCC(=O)N[C@@H](CCCCN)C(=O)N2 [compound 102] (Ac-LRCSASVECKQKCLKAIGSIFGKC[Nle]NKKCKCYPR-NH2; disulfide 3-24, 9-29, 13-31)
IC50 (Rat whole blood; [1]): 0.37 nM | Selectivity ratio Kv1.2/Kv1.3 (human Kv1.2; [2]): 352 | Selectivity ratio Kv1.1/Kv1.3 (human Kv1.1; [2]): >8700 | Selectivity ratio Kv1.6/Kv1.3 (human Kv1.6; [2]): 7096

CC[C@H](C)[C@@H]1NC(=O)[C@H](C)NC(=O)[C@H](CCCCN)NC(=O)[C@H](CC(C)C)NC(=O)[C@@H]2CSSC[C@@H](C(=O)N[C@@H](Cc3ccc(O)cc3)C(=O)N3CCC[C@H]3C(=O)N[C@@H](CCCNC(=N)N)C(=O)O)NC(=O)[C@H](CCCCN)NC(=O)[C@@H]3CSSC[C@H](NC(=O)[C@H](CCC(=O)O)NC(=O)[C@H](C(C)C)NC(=O)[C@H](CO)NC(=O)[C@H](C)NC(=O)[C@H](CO)NC(=O)[C@@H](N)CSSC[C@H](NC(=O)[C@H](CCCCN)NC(=O)CNC(=O)[C@H](Cc4ccccc4)NC(=O)[C@H]([C@@H](C)CC)NC(=O)[C@H](CO)NC(=O)CNC1=O)C(=O)N[C@@H](CCSC)C(=O)N[C@@H](CC(N)=O)C(=O)N[C@@H](CCCCN)C(=O)N[C@@H](CCCCN)C(=O)N3)C(=O)N[C@@H](CCCCN)C(=O)N[C@@H](CCC(N)=O)C(=O)N[C@@H](CCCCN)C(=O)N2 [compound 106] (H-CSASVECKQKCLKAIGSIFGKCMNKKCKCYPR-OH; disulfide 1-22, 7-27, 11-29)
IC50 (Rat whole blood; [1]): 1.9 nM | Selectivity ratio Kv1.2/Kv1.3 (human Kv1.2; [2]): 878 | Selectivity ratio Kv1.1/Kv1.3 (human Kv1.1; [2]): >1400 | Selectivity ratio Kv1.6/Kv1.3 (human Kv1.6; [2]): >1400
